# What was measured:
# [1] = test system: carrageenan-induced mouse paw edema; assay: Carrageenan-induced mouse paw oedema; format: in vivo; conditions: mice, i.p. 0.15 mmol/kg 5 min before carrageenan, paw weight increase after 3.5 h; for inhibition in vivo at 150 µmol/kg: Mus musculus, ip
# Protocol: For the study of possible anti-inflammatory action, the swelling caused in the sole of the right hind limb by intradermal administration of carrageenan was used as a model of inflammation. Carrageenan-induced edema is a non-specific inflammation that results from a number of different transmitters and resembles human acute inflammation.
# The animals were weighed and divided into control, standard and test groups. Each group contained 10 mice. […] An aqueous solution of carrageenan 0.1 mL, 1% w/v) was injected subcutaneously to the sub-plantar region of the right hind paw, with the left paw as control. The tested compounds (suspended in water with a few drops of Tween 80) were given i.p. (0.15 mmol/kg) 5 min before the carrageenan administration. After 3.5 h, the hind paws were excised and were weighed separately. The produced oedema was estimated as a paw weight increase.
# human recombinant COX-2 = target: T1, human recombinant COX-2 (Homo sapiens, UniProt P35354); assay: Inhibition of COX-2 activity (Cayman COX Inhibitor Screening Assay kit); format: biochemical; conditions: read-out: Inhibition, COX-2, Inhibition (%) 200 μM
# T1 construct: purchased Cayman Chemical Co., Ann Arbor, MI
# T1 sequence (P35354 18-604): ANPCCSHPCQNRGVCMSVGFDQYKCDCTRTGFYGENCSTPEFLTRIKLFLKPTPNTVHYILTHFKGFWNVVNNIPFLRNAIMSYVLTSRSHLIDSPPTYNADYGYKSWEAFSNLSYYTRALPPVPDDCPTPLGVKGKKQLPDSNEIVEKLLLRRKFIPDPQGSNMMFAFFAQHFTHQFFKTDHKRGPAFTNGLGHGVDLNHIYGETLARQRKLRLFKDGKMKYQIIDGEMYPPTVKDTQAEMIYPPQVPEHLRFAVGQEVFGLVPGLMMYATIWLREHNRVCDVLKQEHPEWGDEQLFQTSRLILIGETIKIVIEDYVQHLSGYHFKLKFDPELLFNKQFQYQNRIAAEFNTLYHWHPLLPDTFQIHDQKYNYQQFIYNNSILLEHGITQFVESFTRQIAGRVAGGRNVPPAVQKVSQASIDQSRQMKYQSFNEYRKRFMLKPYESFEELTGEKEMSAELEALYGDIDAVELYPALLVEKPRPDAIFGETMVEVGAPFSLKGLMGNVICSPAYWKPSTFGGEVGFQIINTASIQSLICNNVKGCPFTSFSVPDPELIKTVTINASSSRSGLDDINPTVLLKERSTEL
# Protocol: (§1) The effect of compounds on COX-1 and COX-2 inhibition was measured using a commercial kit provided by Cayman (Cayman Chemical Co., Ann Arbor, MI), applying the instructions of the manufacturer. The kit uses ovine COX-1 and human recombinant COX-2 enzymes. […] The assay measures PGF2a produced by SnCl2 reduction of COX-derived PGH2.
# ovine COX-1 = target: T2, ovine COX-1 (Ovis aries, UniProt P05979); assay: Inhibition of COX-1 activity (Cayman COX Inhibitor Screening Assay kit); format: biochemical
# T2 construct: purchased Cayman Chemical Co., Ann Arbor, MI
# T2 sequence (P05979 25-600): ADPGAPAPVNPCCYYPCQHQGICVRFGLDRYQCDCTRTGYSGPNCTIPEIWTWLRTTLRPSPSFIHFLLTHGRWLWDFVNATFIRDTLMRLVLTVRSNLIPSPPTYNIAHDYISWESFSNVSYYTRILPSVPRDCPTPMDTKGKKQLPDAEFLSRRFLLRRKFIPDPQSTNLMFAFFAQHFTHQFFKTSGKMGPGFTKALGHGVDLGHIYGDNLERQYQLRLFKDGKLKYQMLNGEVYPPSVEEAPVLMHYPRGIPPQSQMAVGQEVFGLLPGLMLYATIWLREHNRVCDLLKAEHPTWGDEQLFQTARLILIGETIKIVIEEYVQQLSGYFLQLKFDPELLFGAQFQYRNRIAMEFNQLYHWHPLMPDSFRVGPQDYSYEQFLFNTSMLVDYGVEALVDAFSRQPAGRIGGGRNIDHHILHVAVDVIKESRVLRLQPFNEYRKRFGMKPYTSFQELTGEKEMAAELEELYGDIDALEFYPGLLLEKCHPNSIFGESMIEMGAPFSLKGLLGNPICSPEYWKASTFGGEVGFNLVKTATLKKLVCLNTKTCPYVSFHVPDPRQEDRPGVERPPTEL
# Protocol: as §1
# soybean LOX = target: T3, soybean LOX (Glycine max, UniProt P08170); assay: Inhibition of LOX activity; format: biochemical
# T3 construct: purchased Sigma (St. Louis, MO, USA)
# T3 sequence (P08170 1-839): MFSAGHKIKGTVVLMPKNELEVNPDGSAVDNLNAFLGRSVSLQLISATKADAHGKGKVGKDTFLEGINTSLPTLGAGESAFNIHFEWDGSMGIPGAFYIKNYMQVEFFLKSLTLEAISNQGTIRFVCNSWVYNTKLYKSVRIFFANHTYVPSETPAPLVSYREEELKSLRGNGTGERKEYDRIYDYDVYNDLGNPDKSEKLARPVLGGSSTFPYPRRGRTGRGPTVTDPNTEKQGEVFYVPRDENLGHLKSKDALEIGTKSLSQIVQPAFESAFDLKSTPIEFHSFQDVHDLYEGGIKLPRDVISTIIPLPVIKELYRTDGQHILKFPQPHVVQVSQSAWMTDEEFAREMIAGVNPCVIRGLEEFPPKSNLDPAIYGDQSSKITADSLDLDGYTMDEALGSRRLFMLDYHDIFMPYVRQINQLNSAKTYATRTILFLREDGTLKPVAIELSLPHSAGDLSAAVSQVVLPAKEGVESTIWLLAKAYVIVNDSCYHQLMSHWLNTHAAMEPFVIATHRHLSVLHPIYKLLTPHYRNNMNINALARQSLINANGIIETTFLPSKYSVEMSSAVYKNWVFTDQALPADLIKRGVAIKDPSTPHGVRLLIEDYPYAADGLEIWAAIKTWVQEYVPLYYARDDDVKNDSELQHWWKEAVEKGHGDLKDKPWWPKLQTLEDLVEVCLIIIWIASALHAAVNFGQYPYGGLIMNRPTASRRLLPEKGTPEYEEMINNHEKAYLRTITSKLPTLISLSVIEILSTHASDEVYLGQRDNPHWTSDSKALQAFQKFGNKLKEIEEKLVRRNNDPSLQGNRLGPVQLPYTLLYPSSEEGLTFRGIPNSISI
# Protocol: The reaction mixture contained (final concentration 300 μM) the test compounds, dissolved in absolute ethanol (10–300 μM), or the solvent (control), soybean LOX, dissolved in 0.9% NaCl solution (250 u/mL) and sodium linoleate (100 μM), in Tris-HCl buffer, pH 9.0. The reaction was followed for 7 min at 28 °C, recording the absorbance (234 nm) of a conjugated diene structure, due to the formation of 13-hydroperoxy-linoleic acid. […] For the estimation of the type of inhibition, the above experiments were repeated, using 1 mM sodium linoleate, which is higher than the saturating substrate concentration.
smiles,measurement,setting,value
Cc1cnc(N=C2NC(=O)C(=Cc3cccc([N+](=O)[O-])c3)S2)s1 [Compound 7],inhibition in vivo at 150 µmol/kg,[1],54.5 ± 1.4%
Cc1cnc(N=C2NC(=O)C(=Cc3ccc(Br)cc3)S2)s1 [Compound 17],inhibition in vivo at 150 µmol/kg,[1],41.4 ± 1.9%
Cc1cnc(N=C2NC(=O)C(=Cc3ccccc3O)S2)s1 [Compound 2],inhibition in vivo at 150 µmol/kg,[1],43.1 ± 1.9%
Cc1cnc(N=C2NC(=O)C(=Cc3cccc(Br)c3)S2)s1 [Compound 16],inhibition at 200 µM,human recombinant COX-2,0%
same,IC50,ovine COX-1,1080 ± 300 nM
same,inhibition at 200 µM,ovine COX-1,100%
same,inhibition in vivo at 150 µmol/kg,[1],57.6%
same,Oedema Inhibition (%),[1],57.6 ± 1.4 %
same,inhibition at 100 µM,soybean LOX,46.7 ± 1.5%
Cc1cnc(N=C2NC(=O)C(=Cc3ccc(Cl)cc3)S2)s1 [Compound 12],inhibition in vivo at 150 µmol/kg,[1],55.6%
same,Oedema Inhibition (%),[1],55.6 ± 1.5 %
Cc1cnc(N=C2NC(=O)C(=Cc3ccccc3Cl)S2)s1 [Compound 11],inhibition in vivo at 150 µmol/kg,[1],43 ± 1.7%
Cc1cnc(N=C2NC(=O)C(=Cc3c(Cl)cccc3Cl)S2)s1 [Compound 15],inhibition in vivo at 150 µmol/kg,[1],39.4 ± 2.3%
COc1ccc(C=C2SC(=Nc3ncc(C)s3)NC2=O)cc1 [Compound 4],inhibition in vivo at 150 µmol/kg,[1],48.3 ± 1.8%
Cc1cnc(N=C2NC(=O)C(=Cc3ccccc3[N+](=O)[O-])S2)s1 [Compound 6],inhibition in vivo at 150 µmol/kg,[1],48.7 ± 1.8%
Cc1cnc(N=C2NC(=O)C(=Cc3ccc(F)cc3)S2)s1 [Compound 10],inhibition in vivo at 150 µmol/kg,[1],47.8 ± 1.6%
Cc1cnc(N=C2NC(=O)C(=Cc3ccc(Cl)cc3Cl)S2)s1 [Compound 14],inhibition in vivo at 150 µmol/kg,[1],35.2 ± 2.1%
Cc1cnc(N=C2NC(=O)C(=Cc3ccc(O)cc3)S2)s1 [Compound 3],inhibition in vivo at 150 µmol/kg,[1],31.4%
same,Oedema Inhibition (%),[1],31.4 ± 2.3 %
Cc1cnc(N=C2NC(=O)C(=Cc3ccc([N+](=O)[O-])cc3)S2)s1 [Compound 8],inhibition at 200 µM,human recombinant COX-2,0%
same,IC50,ovine COX-1,14400 ± 700 nM
same,inhibition at 200 µM,ovine COX-1,100%
same,inhibition in vivo at 150 µmol/kg,[1],55.4%
same,Oedema Inhibition (%),[1],55.4 ± 1.5 %
same,inhibition at 100 µM,soybean LOX,7.88 ± 2.1%
Cc1cnc(N=C2NC(=O)C(=Cc3cccc(Cl)c3Cl)S2)s1 [Compound 13],inhibition at 200 µM,human recombinant COX-2,0%
same,IC50,ovine COX-1,1100 ± 300 nM
same,inhibition at 200 µM,ovine COX-1,100%
same,inhibition in vivo at 150 µmol/kg,[1],57.8%
same,Oedema Inhibition (%),[1],57.8 ± 1.3 %
same,inhibition at 100 µM,soybean LOX,37.2 ± 1.8%
Cc1cnc(N=C2NC(=O)C(=Cc3cccc(F)c3)S2)s1 [Compound 9],inhibition in vivo at 150 µmol/kg,[1],34.8 ± 2.1%
"COc1ccc2cc([C@H](C)C(=O)O)ccc2c1 [Naproxen, reference compound]",inhibition at 200 µM,human recombinant COX-2,17 ± 2.3%
Cc1cnc(N=C2NC(=O)C(=Cc3ccccc3)S2)s1 [Compound 1],inhibition in vivo at 150 µmol/kg,[1],51.6 ± 1.5%
COc1ccc(OC)c(C=C2SC(=Nc3ncc(C)s3)NC2=O)c1 [Compound 5],inhibition in vivo at 150 µmol/kg,[1],44.9 ± 1.7%

# Reference: paper PMC9737349, “Discovery of 5-Methylthiazole-Thiazolidinone Conjugates as Potential Anti-Inflammatory Agents: Molecular Target Identification and In Silico Studies” (Molecules, 2022)
